{"source": "patent US4748153A", "about": "“Compounds having somatostatin-like activity useful as local anti-inflammatory agents” (Merck & Co., Inc., priority 1987, dated 1988)", "key": {"[1]": {"tested_on": "inhibition of growth hormone, insulin and glucogen secretion", "assay": "Potency relative to somatostatin (SRIF)", "details": "SRIF assigned a value of 1, based upon inhibition of growth hormone", "experimental": "(§1) Following the same procedure as described above for Assay 1, additional compounds were tested for local; i.e., topical, anti-inflammatory activity. […] In Table IV, the potency of each compound tested relative to that of somatostatin is also shown, the somatostatin (SRIF) potency being assigned a value of 1 and based upon its inhibition of growth hormone, insulin and glucogen secretion."}, "[2]": {"tested_on": "cellular proliferation (granuloma)", "assay": "Pellet granuloma assay, compound applied locally to subcutaneously implanted pellets (Assays 1, 2, 4)", "assay_type": "in vivo, rats (Charles River-CD)", "details": "for Body Wt. Change: Assay 2; for Granulosimer Net weight: Assay 1, six animals per group, 7 days, ± 2 S.E. of mean", "experimental": "The assay method employed to test the Formula I, II, III, IV and V compounds as local anti-inflammatory agents is a modification of the method described by S. L. Steelman, et al. [Steroids, 1, 163 (1963)] as follows:\n(§2) Male rats (Charles River-CD) of about 150-160 grams in weight were subcutaneously implanted in the abdominal area with two pellets each. Five animals were used per group. The pellets used were preweighed and all used in a given assay were ±1 mg from one another. The compounds were dissolved in absolute ethanol and the indicated dose applied to each pellet in 0.2 ml. The alcohol was removed in vacuo overnight. Just prior to implantation, each pellet was moistened with 0.2 ml of 0.9% saline containing 1 mg each of penicillin and streptomycin. After seven days, the pellets were dissected out together with adhering granulomatous tissue. After drying in a vacuum oven overnight at 60°-65° C., the pellets were weighed. The difference in weight between the original pellet weight and the implanted pellet weight was used as a measure of cellular proliferation (granuloma). The lower the net weight, the more anti-inflammatory activity.\nFollowing the procedure of the Assay Method described above, somatostatin (SRIF) was tested for its anti-inflammatory activity. The structure of somatostatin is: [drawing 5]\nSix animals per group were used in this test and the results obtained are shown in Table I below wherein hydrocortisone was used as a positive control:\nThe results obtained following the Assay Method described above using Compound 8 of Formula I are shown below in Table II wherein hydrocortisone was used as a positive control.\nas §1"}, "[3]": {"tested_on": "cellular proliferation (granuloma)", "assay": "Pellet granuloma assay, compounds administered subcutaneously as saline injections (Assay 3)", "assay_type": "in vivo, rats (Charles River-CD)", "experimental": "as §2\nFollowing the procedure described above for Assau 1, additional tests were conducted except that the compounds were administered subcutaneously as saline injections. The tests were carried out on six animals per group and the results obtained are shown below in Table III."}, "[4]": {"details": "administered subcutaneously, Table III"}}, "note": "Residues, ends and D or L forms follow the SMILES beside them.", "data": [{"smiles": "CC(C)[C@@H]1NC(=O)[C@H](CCCCN)NC(=O)[C@@H](Cc2c[nH]c3ccccc23)NC(=O)[C@H](Cc2ccc(O)cc2)NC(=O)[C@H](C)N(C)C(=O)[C@H](Cc2c[nH]c3ccccc23)NC1=O", "note": "[9/I, Cyclo-(N-Me-Ala-Tyr-D-Trp-Lys-Val-Trp)] (HELM PEPTIDE1{K.V.W.[meA].Y.[dW]}$PEPTIDE1,PEPTIDE1,1:R1-6:R2$$$V2.0)", "values": [{"measurement": "Potency Relative to Somatostatin (SRIF)", "setting": "[1]", "result": "20-35"}]}, {"smiles": "CC(C)[C@@H]1NC(=O)[C@H](CCCCN)NC(=O)[C@H](Cc2c[nH]c3ccccc23)NC(=O)[C@H](Cc2ccc(O)cc2)NC(=O)[C@H](C)N(C)C(=O)[C@H](Cc2ccccc2)NC1=O", "note": "[10/I, Cyclo-(N-Me-Ala-Tyr-L-Trp-Lys-Val-Phe)]", "values": [{"measurement": "Potency Relative to Somatostatin (SRIF)", "setting": "[1]", "result": 50}]}, {"smiles": "C[C@@H]1NC(=O)[C@H](CO)NC(=O)[C@H](CCCCN)NC(=O)[C@@H](Cc2c[nH]c3ccccc23)NC(=O)[C@H](Cc2c[nH]cn2)NC(=O)[C@H](Cc2ccccc2)N(C)C1=O", "note": "[11/I, Cyclo-(Ser-Ala-N-Me-Phe-His-D-Trp-Lys)] (HELM PEPTIDE1{A.[meF].H.[dW].K.S}$PEPTIDE1,PEPTIDE1,1:R1-6:R2$$$V2.0)", "values": [{"measurement": "Potency Relative to Somatostatin (SRIF)", "setting": "[1]", "result": 200}]}, {"smiles": "C[C@@H](O)[C@@H]1NC(=O)[C@H](CCCCN)NC(=O)[C@@H](Cc2c[nH]c3ccccc23)NC(=O)[C@H](Cc2ccccc2)NC(=O)[C@@H]2CCCN2C(=O)[C@H](Cc2ccccc2)NC1=O", "note": "[13/II, Cyclo-(Pro-Phe-D-Trp-Lys-Thr-Phe)] (HELM PEPTIDE1{P.F.[dW].K.T.F}$PEPTIDE1,PEPTIDE1,1:R1-6:R2$$$V2.0)", "values": [{"measurement": "Potency Relative to Somatostatin (SRIF)", "setting": "[1]", "result": 6}]}, {"smiles": "CC(C)[C@@H]1NC(=O)[C@H](CCCCN)NC(=O)[C@@H](Cc2c[nH]c3ccccc23)NC(=O)[C@H](Cc2ccc(O)cc2)NC(=O)[C@H](C)N(C)C(=O)[C@H](Cc2ccccc2)NC1=O", "note": "[Compound 8 of Formula I, Cyclo-(N-Me-Ala-Tyr-D-Trp-Lys-Val-Phe)]", "values": [{"measurement": "Body Wt. Change", "setting": "[2]; 10 mcg/pellet", "result": "+43 gm"}, {"measurement": "Body Wt. Change", "setting": "[2]; 100 mcg/pellet", "result": "+40 gm"}, {"measurement": "anti-inflammatory activity (in words)", "setting": "[2]; doses of 100-200 micrograms per pellet, Table II", "result": "significant activity"}, {"measurement": "effect on adrenal weight (in words)", "setting": "[3]; [4]", "result": "slight decrease in the adrenal weight"}, {"measurement": "anti-inflammatory activity (in words)", "setting": "[3]; administered systemically, i.e., subcutaneously", "result": "no anti-inflammatory activity"}, {"measurement": "Avg. Adrenal wt.", "setting": "[3]; daily dose 200 mcg subcutaneously, ± S.E. of mean", "result": "36 ± 2", "unit": "mg"}, {"measurement": "Potency Relative to Somatostatin (SRIF)", "setting": "[1]", "result": "50-100"}]}, {"smiles": "C[C@]12CCC(=O)C=C1CC[C@@H]1[C@@H]2[C@@H](O)C[C@@]2(C)[C@H]1CC[C@]2(O)C(=O)CO", "note": "[Hydrocortisone, hydrocortisone]", "values": [{"measurement": "Body Wt. Change", "setting": "[2]; 200 mcg/pellet", "result": "+44 gm"}, {"measurement": "Granulosimer Net weight", "setting": "[2]; 300 mcg/pellet", "result": "24 ± 2", "unit": "mg"}, {"measurement": "Body Wt. Change", "setting": "[2]; 1000 mcg/pellet", "result": "+41 gm"}, {"measurement": "activity (in words)", "setting": "[3]; [4]", "result": "typical activity"}]}, {"smiles": "C[C@H](N)C(=O)NCC(=O)N[C@H]1CSSC[C@@H](C(=O)O)NC(=O)[C@H](CO)NC(=O)[C@H]([C@@H](C)O)NC(=O)[C@H](Cc2ccccc2)NC(=O)[C@H]([C@@H](C)O)NC(=O)[C@H](CCCCN)NC(=O)[C@H](Cc2c[nH]c3ccccc23)NC(=O)[C@H](Cc2ccccc2)NC(=O)[C@H](Cc2ccccc2)NC(=O)[C@H](CC(N)=O)NC(=O)[C@H](CCCCN)NC1=O", "note": "[SRIF, somatostatin]", "values": [{"measurement": "Granulosimer Net weight", "setting": "[2]; 1500 mcg/pellet", "result": "25 ± 1", "unit": "mg"}, {"measurement": "anti-inflammatory activity (in words)", "setting": "[2]; Assay 1, Table I, on pellet", "result": "effective anti-inflammatory agent"}, {"measurement": "Potency Relative to Somatostatin (SRIF)", "setting": "[1]", "result": 1}]}]}
